Test results as given in patent US20140073760A1, “USE OF AN ANG-(1-7) RECEPTOR AGONIST IN ACUTE LUNG INJURY” (Charite-Universitatsmedizin Berlin, priority 2008, published 2014).
“Also recorded” adds a separate entry of the source. Non-standard residues stand in square brackets, D forms with d. No end group written: not given here.

Tested on: oleic acid induced acute lung injury
Assay: Oleic acid induced acute lung injury (ALI) in anesthetized, ventilated rats
Assay type: in vivo, male Sprague-Dawley rats
Conditions: rat
Procedure: Experiments were performed in male Sprague-Dawley rats (Charles River Wiga GmbH, Sulzfeld, Germany) with a body weight (bw) of 330-360 g. Animals received care in accordance with the Guide for the Care and Use of Laboratory Animals (Institute of Laboratory Animal Resources, 7th edition 1996). The study was approved by the local animal care and use committee.
Rats were anesthetized by intraperitoneal injection of medetomidine (0.5 mg/kg bw, Domitor®, Dr. E. Graeub AG, Basel, Switzerland), fentanyl (0.05 mg/kg bw, JanssenCilag, Neuss, Germany) and midazolam (5 mg/kg bw, Dormicum®, Roche, Basel, Switzerland) as previously described (17). Following tracheotomy, the trachea was cannulated and ventilation was established (Advanced Animal Respirator, TSE Systems GmbH, Bad Homburg, Germany) with a tidal volume of 6 ml/kg bw at 80 breaths/min. Catheters (internal diameter 0.58 mm; Sims Portex Ltd., Hythe, United Kingdom) were introduced into the left carotid artery and the right internal jugular vein for monitoring of arterial blood pressure (AP), fluid replacement and drug delivery as previously described (18). An ultrasonic flowprobe (Transonic®, Transonic Systems Inc., Ithaca, N.Y.) was placed around the ascending aorta distal to the branching of the coronary arteries for continuous monitoring of cardiac output (CO). After median thoracotomy, a catheter was introduced via the right ventricle into the pulmonary artery for measurement of pulmonary artery pressure (PAP). AP, PAP and CO were continuously recorded by the software package DasyLab 32 (DasyLab, Moenchengladbach, Germany). Pulmonary vascular resistance (PVR) was calculated as arteriovenous pressure differences over flow under the assumption of a constant left atrial pressure of 2 mmHg.
In group 2 (OA), ALI was induced by intravenous infusion of 0.2 mg/kg oleic acid (Sigma, Munich, Germany) over 30 min in the absence of any treatment. In group 3 (OA+Ang-(1-7)), ALI was induced as in group II, and infusion of Ang-(1-7) at 5 pmol/kg per min was initiated immediately after ALI induction. In group 4 (OA+AVE0991), ALI was induced as in group II, and infusion of AVE0991 at 500 pmol/kg per min was initiated immediately after ALI induction. In two additional groups of n=6 each, in which only myeloperoxidase (MPO) activity was measured, infusion of the Ang-(1-7) receptor blocker A779 (10 pmol/kg per min) was initiated either alone (group 5) or in combination with Ang-(1-7) (5 pmol/kg per min; group 6) immediately after induction of ALI.
After surgical preparation and hemodynamic stabilization over at least 15 min, baseline hemodynamics were recorded and arterial blood gases analyzed (RapidLab 348; Chiron Diagnostics GmbH, Fernwald, Germany). Removed blood volume was replaced by hydroxyethyl starch (6% hydroxyethyl starch 200/0.6; Fresenius, Bad Homburg, Germany). Immediately after baseline recordings, 0.2 mg/kg oleic acid was infused intravenously over 30 min in groups II-VI or an equal volume of 0.9% NaCl in group I. In all groups, measurements were repeated in 60 min intervals up to a total of 4 h at which time animals were sacrificed by exsanguination. After in situ ligation of the right main bronchus, lungs were excised and processed for determination of wet-to-dry weight ratio and myeloperoxidase (MPO) activity as described below.
For determination of lung water content, wet-to-dry weight ratio was measured by use of the microwave drying technique (18). Recruitment of inflammatory cells was analyzed by measurements of MPO activity in lung homogenates as previously described (19). In brief, MPO activity was determined by a 3,3′-5,5′-tetramethylbenzidine (TMB)-based photometric assay, compared to appropriate standard curves, and expressed as units per gram lung tissue (U/g).
All data are presented as mean±SEM. Data were tested by Kruskal-Wallis test for differences between groups. Statistical significance was assumed at P<0.05.

Substance	rescue effect of Ang-(1-7) infusion on OA-induced ALI (lung MPO activity) (A779 10 pmol/kg per min in combination with Ang-(1-7) 5 pmol/kg per min after OA, only MPO measured)	OA-induced ALI (lung MPO activity) (A779 infusion 10 pmol/kg per min alone after OA, only MPO measured)	OA-induced change in lung wet-to-dry weight ratio (Ang-(1-7) infusion 5 pmol/kg per min after OA, 4 h, FIG. 1(B))	systemic arterial pressure (systemic hypotension in OA-infused rats) (Ang-(1-7) infusion 5 pmol/kg per min after OA, 4 h, FIG. 1(C))	OA-induced change in pulmonary vascular resistance (Ang-(1-7) infusion 5 pmol/kg per min after OA, 4 h, FIG. 1(D))	OA-induced change in lung MPO activity (Ang-(1-7) infusion 5 pmol/kg per min after OA, 4 h, lung homogenates, FIG. 1(A))	development of OA-induced ALI (OA 0.2 mg/kg i.v. over 30 min, Ang-(1-7) infusion 5 pmol/kg per min started immediately after ALI induction, 4 h)	lung oedema and inflammation in oleic-acid induced ALI (infusion after OA, conclusion of the study)
Asp^1-Arg^2-Val^3-Tyr^4-Ile^5-His^6-D-Ala^7 (DRVYIH[dA]) [A779, reference compound]	blocks the rescue effect of Ang-(1-7) infusion; also recorded: lost after Mas blockade	aggravates OA-induced ALI; also recorded: aggravated after Mas blockade						
Asp^1-Arg^2-Val^3-Tyr^4-Ile^5-His^6-Pro^7 [Ang-(1-7)]			abrogated OA-induced changes	attenuated systemic hypotension	abrogated OA-induced changes	abrogated OA-induced changes	completely prevented the development of OA-induced ALI	completely prevents lung oedema and inflammation
